# According to patent publication US20260225997A1, “IONIZABLE AMINE LIPIDS” (Intellia Therapeutics, Inc., priority 2018, published 2026):
# Where two headings read alike, the source gives them in different places.
# Columns and labels:
# [1] = pKa measurement of unformulated amine lipid (fluorescence, method of Jayaraman et al.); assay type: physicochemical; settings: 100 μM in 0.1 M phosphate buffer pH 4.5-9.0
# Procedure: The pKa of each amine lipid was determined according to the method in Jayaraman, et al. (Angewandte Chemie, 2012) with the following adaptations. […] Lipid was diluted to 100 μM in 0.1 M phosphate buffer (Boston Bioproducts) where the pH ranged from 4.5-9.0. Fluorescence intensity was measured using excitation and emission wavelengths of 321 nm and 448 nm.
# [2] = RNA encapsulation efficiency of LNP (Ribogreen fluorescence assay); assay type: physicochemical
# In short: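 LNP samples diluted in 1× TE buffer with 0.2% Triton X-100 (total RNA) or without it (free RNA), stained with RiboGreen for ~10 min at room temperature in the dark, read at ex 488/em 525 nm against RNA standard curves. Encapsulation efficiency = (Total RNA − Free RNA)/Total RNA.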
# TTR [3] = experiment: TTR editing in mouse liver by NGS after i.v. LNP delivery of Cas9 mRNA and sgRNA; assay type: in vivo; settings: CD-1 female mice
# In short: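 Cas9 mRNA and chemically modified sgRNA were co-formulated in LNPs made of an ionizable amine lipid, DSPC, cholesterol and PEG-2k-DMG at a 6.0 N:P ratio. CD-1 female mice aged 6-10 weeks received tail-vein injections of 0.2 mL. Liver genomic DNA was then amplified around the target site and sequenced on an Illumina MiSeq, with editing calculated as indel-containing reads over total reads.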
# TTR [4] = experiment: Transthyretin (TTR) ELISA analysis of mouse serum after LNP dosing; assay type: in vivo; settings: for response vs control in vivo at 0.1 mg/kg / response vs control in vivo at 0.03 mg/kg: read-out: Serum TTR % TSS
# In short: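 Female CD-1 mice aged 6-10 weeks were grouped by body weight and given LNPs by lateral tail vein injection (0.2 mL per animal, about 10 mL per kilogram). Mice were bled by cardiac puncture under isoflurane into serum separator tubes. Serum was diluted 10,000-fold for the 0.1 mpk dose, and total TTR was quantified with a Mouse Prealbumin (Transthyretin) ELISA Kit following the kit directions.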
# [5] = Table 14, Example 58: LNP, G282 (TTR) 1:1 w/w, N:P 6.0
# [6] = Table 22, Example 62: LNP, G282 (TTR), sgRNA:Cas9 mRNA 1:2 w/w, N:P 6.0
# [7] = Table 24, Example 63: LNP, G282 (TTR) 1:1 w/w, NP 6.0
# [8] = Example 53: 0.1 mpk i.v., 6 days post-dose, G282 1:1
# [9] = Example 53: 0.3 mpk i.v., 6 days post-dose, G282 1:1
# [10] = Example 55: 0.1 mpk i.v., 7 days post-dose, G282 1:1
# [11] = Example 56: 0.1 mpk i.v., 7 days post-dose, G282
# [12] = Example 59: 0.1 mpk i.v., 7 days post-dose, G282 1:1
# [13] = Example 60: 0.1 mpk i.v., 6 days post-dose, G502 1:2
# [14] = Example 61: 0.1 mpk i.v., 7 days post-dose, G282 1:1
# [15] = Example 62: 0.03 mpk i.v., 7 days post-dose, G282 1:2
# [16] = Example 62: 0.1 mpk i.v., 7 days post-dose, G282 1:2
# [17] = Example 63: 0.03 mpk i.v., 7 days post-dose, G282 1:1
# [18] = Example 63: 0.1 mpk i.v., 7 days post-dose, G282 1:1
# [19] = Example 64: Dose 0.03 mpk (table) i.v., 7 days post-dose, G282 1:1
# [20] = Mus musculus, iv, 144 h, Example 58: 0.1 mpk i.v., 6 days post-dose, G282 1:1
# [21] = Mus musculus, iv, 168 h, Example 62: 0.03 mpk i.v., 7 days post-dose, G282 1:2
# [22] = Mus musculus, iv, 168 h, Example 62: 0.1 mpk i.v., 7 days post-dose, G282 1:2
# [23] = Mus musculus, iv, 168 h, Example 63: 0.03 mpk i.v., 7 days post-dose, G282 1:1
# [24] = Mus musculus, iv, 168 h, Example 63: 0.1 mpk i.v., 7 days post-dose, G282 1:1
# [25] = Example 58: 0.1 mpk i.v., 6 days post-dose, G282 1:1
smiles,measurement,setting,value
"CCCCC/C=C\C/C=C\CCCCCCCC(=O)OCC(COC(=O)CCC(OCCCCCCCC)OCCCCCCCC)COC(=O)OCCCN(CC)CC (centres unmarked) [Compound 19, 3-((4,4-bis(octyloxy)butanoyl)oxy)-2-(((((3-(diethylamino)propoxy))-carbonyl)oxy)methyl)propyl (9Z,12Z)-octadeca-9,12-dienoate, reference compound]",pKa,[1],6.4
same,Encapsulation (%),"[2]; Table 3, Example 52: LNP, Cas9 mRNA + sgRNA (G650) 1:1 w/w, N:P 6.0, Compound 19 50/9/38/3, others 50/10/38.5/1.5",98%
same,Encapsulation (%),"[2]; Table 5, Example 53: LNP with gRNA G282 (TTR), 1:1 w/w, N:P 6.0",99%
same,Encapsulation (%),"[2]; Table 5, Example 53: LNP with gRNA G650 (B2M), 1:1 w/w, N:P 6.0",98%
same,Encapsulation (%),"[2]; Table 8, Example 54: LNP, G650 (B2M) 1:1 w/w, N:P 6.0",98%
same,Encapsulation (%),"[2]; Table 10, Example 55: LNP, G282 (TTR) 1:1 w/w, N:P 6.0",98%
same,Encapsulation (%),"[2]; Table 12, Example 56: LNP, G282 (TTR), ratio 6.0",97%
same,Encapsulation (%),[2]; [5],99%
same,Encapsulation (%),"[2]; Table 16, Example 59: LNP, G282 (TTR) 1:1 w/w, N:P 6.0",98%
same,Encapsulation (%),"[2]; Table 18, Example 60: LNP, G502 (TTR), sgRNA:Cas9 mRNA 1:2 w/w, N:P 6.0",99%
same,Encapsulation (%),"[2]; Table 20, Example 61: LNP, G282 (TTR) 1:1 w/w, N:P 6.0",98%
same,Encapsulation (%),[2]; [6],99%
same,Encapsulation (%),[2]; [7],98%
same,Encapsulation (%),"[2]; Table 26, Example 64: LNP, G282 (TTR) 1:1 w/w, N:P 6.0",98%
same,TTR Editing (%),TTR [3]; [8],13.8%
same,TTR Editing (%),TTR [3]; [9],45.9%
same,"% Editing (TTR, liver)",TTR [3]; [10],29%
same,Editing %,TTR [3]; [11],15%
same,Editing Mean % Indel,TTR [3]; [12],29.3%
same,Editing Mean % Indel,TTR [3]; [13],41.4%
same,Editing Mean % Indel,TTR [3]; [14],35.9%
same,Editing Mean % Indel,TTR [3]; [15],7.0%
same,Editing Mean % Indel,TTR [3]; [16],27.1%
same,Editing Mean % Indel,TTR [3]; [17],30.18%
same,Editing Mean % Indel,TTR [3]; [18],56.02%
same,Editing Mean % Indel,TTR [3]; [19],5.2%
same,TSS (serum TTR % TSS),TTR [4]; [8],85 % TSS
same,Serum TTR,"TTR [4]; Example 53: 0.1 mpk i.v., CD-1 female mice, 6 days post-dose, G282 1:1",55 µg/mL
same,TSS (serum TTR % TSS),TTR [4]; [9],3 % TSS
same,Serum TTR,"TTR [4]; Example 53: 0.3 mpk i.v., CD-1 female mice, 6 days post-dose, G282 1:1",55 µg/mL
same,Serum TTR,TTR [4]; [10],528 µg/mL
same,Serum TTR (% TSS),TTR [4]; [10],46 % TSS
same,Serum TTR,TTR [4]; [11],865 µg/mL
same,Serum TTR (% TSS),TTR [4]; [11],108 % TSS
same,Serum TTR,TTR [4]; [12],438 µg/mL
same,Serum TTR,TTR [4]; [13],517 µg/mL
same,Serum TTR,TTR [4]; [14],438 µg/mL
same,Serum TTR,TTR [4]; [15],560 µg/mL
same,Serum TTR,TTR [4]; [16],414 µg/mL
same,Serum TTR,TTR [4]; [17],593.01 µg/mL
same,Serum TTR,TTR [4]; [18],134.54 µg/mL
same,Serum TTR,TTR [4]; [19],622.0 µg/mL
same,response vs control in vivo at 0.1 mg/kg,TTR [4]; [20],59%
same,response vs control in vivo at 0.1 mg/kg,"TTR [4]; Mus musculus, iv, 144 h, Example 60: 0.1 mpk i.v., 6 days post-dose, G502 1:2",36%
same,response vs control in vivo at 0.1 mg/kg,"TTR [4]; Mus musculus, iv, 168 h, Example 59: 0.1 mpk i.v., 7 days post-dose, G282 1:1",47%
same,response vs control in vivo at 0.1 mg/kg,"TTR [4]; Mus musculus, iv, 168 h, Example 61: 0.1 mpk i.v., 7 days post-dose, G282 1:1",34%
same,response vs control in vivo at 0.03 mg/kg,TTR [4]; [21],88%
same,response vs control in vivo at 0.1 mg/kg,TTR [4]; [22],65%
same,response vs control in vivo at 0.03 mg/kg,TTR [4]; [23],73.5%
same,response vs control in vivo at 0.1 mg/kg,TTR [4]; [24],16.7%
same,inhibition in vivo at 0.03 mg/kg,"TTR [4]; Mus musculus, iv, 168 h, Example 64: Dose 0.03 mpk (table) i.v., 7 days post-dose, G282 1:1, read-out: Serum TTR (% KD)",-8.6%
"CCCCCCCCOC(CCCCCCCN(CCO)CCCCCCCC(=O)OC(CC)CCCCCC)OCCCCCCCC (centres unmarked) [Compound 28, nonan-3-yl 8-((8,8-bis(octyloxy)octyl)(2-hydroxyethyl)amino)octanoate]",pKa,[1],6.41
same,Encapsulation (%),[2]; [7],97%
same,Editing Mean % Indel,TTR [3]; [17],20.74%
same,Editing Mean % Indel,TTR [3]; [18],42.36%
same,Serum TTR,TTR [4]; [17],493.60 µg/mL
same,Serum TTR,TTR [4]; [18],321.26 µg/mL
same,response vs control in vivo at 0.03 mg/kg,TTR [4]; [23],61.2%
same,response vs control in vivo at 0.1 mg/kg,TTR [4]; [24],39.8%
"CCCCCCCCOC(CCCCCCCN(CCO)CCCCCCCC(=O)OC(CC)CCCCCCCC)OCCCCCCCC (centres unmarked) [Compound 17, undecan-3-yl 8-((8,8-bis(octyloxy)octyl)(2-hydroxyethyl)amino)octanoate]",pKa,[1],6.21
same,Encapsulation (%),[2]; [5],91%
same,Encapsulation (%),[2]; [6],94%
same,Editing Mean % Indel,TTR [3]; [25],40.8%
same,Editing Mean % Indel,TTR [3]; [15],4.0%
same,Editing Mean % Indel,TTR [3]; [16],45.9%
same,Serum TTR,TTR [4]; [25],479 µg/mL
same,Serum TTR,TTR [4]; [15],495 µg/mL
same,Serum TTR,TTR [4]; [16],304 µg/mL
same,response vs control in vivo at 0.1 mg/kg,TTR [4]; [20],48%
same,response vs control in vivo at 0.03 mg/kg,TTR [4]; [21],78%
same,response vs control in vivo at 0.1 mg/kg,TTR [4]; [22],48%
